# In patent US6479506B1 (dated 2002):
row,melting point [°C],Compound
1,130 to 133,Cn1ncnc1COc1nc2c(cc1CC(C)(C)C)nnn2-c1ccccc1F
2,165 to 167,Cn1ncnc1COc1nc2c(cc1C(C)(C)C)nnn2-c1ccccc1
3,105 to 108,Cn1ncnc1COc1nc2c(cc1C(C)(C)C)nnn2-c1c(F)cccc1F
4,140 to 144,Cn1ncnc1COc1nc2c(cc1C1CCC1)nnn2-c1c(F)cccc1F (hydrate or solvate)
5,127 to 129,Cn1cnc(COc2nc3c(cc2C(C)(C)C)nnn3-c2ccccc2F)n1
6,116 to 118,COc1cccc(F)c1-n1nnc2cc(C(C)(C)C)c(OCc3ncnn3C)nc21
7,148 to 150,CCn1ncnc1COc1nc2c(cc1C(C)(C)C)nnn2-c1cc(F)ccc1F
8,127 to 129,CCCn1ncnc1COc1nc2c(cc1C(C)(C)C)nnn2-c1ccccc1F
9,115 to 117,Cn1ncnc1COc1nc2c(cc1C(C)(C)C)nnn2-c1ccccc1F

# Further lines, the molecule ahead of its results:
row,Compound,melting point [°C]
1,Cn1cnc(COc2nc3c(cc2C(C)(C)C)nnn3-c2ccccc2)n1,179 to 180
2,Cn1ncnc1COc1nc2c(cc1-c1ccccc1)nnn2-c1ccccc1F,144 to 146
3,Cn1cnc(COc2nc3c(nnn3-c3ccccc3)c3ccccc23)n1,189 to 190
4,Cn1ncnc1COc1nc2c(cc1-c1ccco1)nnn2-c1ccccc1F,170 to 173
5,COC(=O)c1cc2nnn(-c3ccccc3)c2nc1OCc1ncnn1C,188 to 190
6,Cn1ncnc1COc1nc2c(nnn2-c2ccccc2)c2ccccc12,188 to 190
7,Cn1ncnc1COc1nc2c(cc1-c1ccoc1)nnn2-c1c(F)cccc1F,166 to 169
8,Cn1cnc(COc2nc3c(cc2-c2ccsc2)nnn3-c2ccccc2F)n1,174 to 176
9,Cn1ncnc1COc1nc2c(cc1-c1ccc(F)cc1)nnn2-c1ccccc1F,142 to 145
10,c1ccc(-n2nnc3c4ccccc4c(OCc4ccccn4)nc32)cc1,147 to 150
11,CCCn1ncnc1COc1nc2c(nnn2-c2ccccc2)c2ccccc12,154 to 156
12,Cn1ncnc1COc1nc2c(cc1C1CCC1)nnn2-c1ccccc1F,120 to 122
13,CCn1ncnc1COc1nc2c(nnn2-c2ccccc2)c2ccccc12,192 to 195
14,Cn1cnc(COc2nc3c(cc2-c2cccs2)nnn3-c2ccccc2F)n1,179 to 181
15,Cn1ncnc1COc1nc2c(cc1-c1cccc(F)c1)nnn2-c1c(F)cccc1F,137 to 140
16,Cn1ncnc1COc1nc2c(cc1-c1ccsc1)nnn2-c1ccccc1F,133 to 135
17,Cn1ncnc1COc1nc2c(cc1-c1ccoc1)nnn2-c1ccccc1F,145 to 146
